From article PMC2965131, “Histopathology and biochemistry analysis of the interaction between sunitinib and paracetamol in mice” (BMC Pharmacology, 2010)
Several values for one entry are separate records, joined by “and”; a condition that tells them apart may be missing. Equal values may be shown once.

Columns and labels:
[1] = set-up: method as in PMID 16520665; conditions: mice; cited from earlier work
mouse plasma proteins = tested on: mouse plasma proteins; set-up: method as in PMID 19169880; conditions: fraction unbound independent of concentration; cited from earlier work
[2] = set-up: method as in earlier work; conditions: monkeys; up; cited from earlier work
plasma proteins = conditions: humans; cited from earlier work
[3] = humans; cited from earlier work
Male ICR mice [4] = assay: Serum ALT and AST (liver function biomarkers); type: in vivo; conditions: for ALT serum concentration / AST serum concentration: mean ± SE
Procedure: (§1) Animals were fasted overnight prior to dose administration and randomly assigned to each of the four experimental groups. Mice in group A (n = 6) were administered saline; mice in group B mice (n = 6) were administered paracetamol only, 500 mg/kg IP. Group C was further subdivided into five different dose-groups of sunitinib only treatment: 25, 50, 80, 100 and 140 mg/kg administered PO (n = 6 for each dose group). Finally, mice in group D were co-administered paracetamol (500 mg/kg IP) and sunitinib at different doses: 25, 50, 80, 100 and 140 mg/kg PO (n = 6 each dose group). A feeding needle was used to ensure the full administration of the dose. Paracetamol was administered 15 minutes before sunitinib and animals were sacrificed 4 hours post sunitinib administration by cervical dislocation. Blood was obtained via cardiac puncture, allowed to clot, centrifuged (1500 rpm, 10 min, room temperature) and stored at -20°C until analysis. The liver and kidneys were excised from the mice and processed for histology assessment.
(§2) Biochemistry analysis of serum ALT and AST was performed using standard assay kits (BiooScientific Corp., USA). The concentration in duplicate samples was measured at 340 nm using a microplate reader (Tecan Infinite F200). Similarly, blood urea nitrogen (BUN) and creatinine concentration were measured using specific assay kits (BioAssay Systems, USA) and measured at 490 nm (duplicate samples) in a Dynex OpsysMR microplate reader.
(§3) The effect of the drug combination on the biomarker levels compared to sunitinib alone treatment was assessed with the aid of SPSS 16.0 with the significance level set at p < 0.05. Independent-samples t-test (for samples normally distributed based on Shapiro-Wilk test) for pair-wise comparison was performed at each dose of the sunitinib alone and sunitinib and paracetamol combination groups. Samples that were not normally distributed were tested using the Mann Whitney test.

liver tissue = assay: Histopathology assessment of liver (H&E, semi-quantitative grading); type: in vivo; conditions: mice
Procedure: as §1
(§4) Processing of tissue samples for histology assessment followed established procedures. In brief, the tissue samples were rinsed with 0.9% saline solution, fixed in 10% formalin. Then the diagonal section of the liver, the transverse section of the kidneys and heart and the horizontal section of the spleen and the posterior section of the brain were obtained and processed (Leica TP1020, Japan) as follows: (1) 10% neutral buffered formalin for 1 h, twice; (2) 70% alcohol for 1.5 h; (3) 80% alcohol for 1.5 h; (4) 90% alcohol for 1.5 h; (5) absolute alcohol for 1.5 h, twice; (6) xylene for 1.5 h, twice; (7) in molten wax at 65°C for 2.5 h two changes. The processed tissues were embedded in paraffin and sectioned at 4 microns thickness, placed on frosted glass slides and dried on a 70°C hot plate for 30 minutes.
(§5) The tissues were stained using the hematoxylin and eosin (H&E) stains. The sections were dewaxed in two changes of xylene (3 min each), hydrated in two changes of 100% ethanol, followed by 90% ethanol and 70% ethanol, for 3 min each, rinsed with water (3 min) and stained. […]
(§6) Histopathology changes were observed and grouped based on two main criteria: vascular changes including vessel congestion, extravasation of red blood cells and hematoma formation; and necrotic changes including necrosis, fibrosis, nuclear changes, abscesses and cell regeneration. The morphological changes were assessed semi-quantitatively, blind by two independent assessors and graded as follows: No change - 0 (no distinguishable change, 0%); mild change - 1 (initiation of changes, up to 30%); moderate change - 2 (patent changes, 31-60%); severe change - 3 (wide spread changes, 61-100%). […]

P450 = tested on: P450; set-up: method as in PMID 20020268; conditions: cited from earlier work
kidney tissue = assay: Histopathology assessment of kidney (H&E, semi-quantitative grading); type: in vivo; conditions: mice
Procedure: as §1, §4
(§7) The tissues were stained using the hematoxylin and eosin (H&E) stains. The sections were dewaxed in two changes of xylene (3 min each), hydrated in two changes of 100% ethanol, followed by 90% ethanol and 70% ethanol, for 3 min each, rinsed with water (3 min) and stained. The stained tissues were dehydrated with 70% ethanol followed by 90% ethanol, placed in two changes of 100% ethanol for 3 minutes each and cleaned with two changes of xylene (3 min each).
(§8) Histopathology changes were observed and grouped based on two main criteria: vascular changes including vessel congestion, extravasation of red blood cells and hematoma formation; and necrotic changes including necrosis, fibrosis, nuclear changes, abscesses and cell regeneration. The morphological changes were assessed semi-quantitatively, blind by two independent assessors and graded as follows: No change - 0 (no distinguishable change, 0%); mild change - 1 (initiation of changes, up to 30%); moderate change - 2 (patent changes, 31-60%); severe change - 3 (wide spread changes, 61-100%). Then, using SPSS 16.0, the Mann-Whitney test was used for pair-wise comparison between the sunitinib alone group and the combination group at each dose. The differences were considered significance if p < 0.05.

brain tissue = assay: Histopathology assessment of brain (H&E, semi-quantitative grading); type: in vivo; conditions: mice; for Brain histopathological changes: 4 h
Procedure: as §1
Processing of tissue samples for histology assessment followed established procedures. In brief, the tissue samples were rinsed with 0.9% saline solution, fixed in 10% formalin. […]
as §6

spleen = assay: Histopathology assessment of spleen (H&E, semi-quantitative grading); type: in vivo; conditions: mice; for Spleen inflammatory changes: at any dose; for Spleen vascular changes: study doses of each treatment group
Procedure: as §1, §4, §5, §6

Male ICR mice [5] = assay: Serum BUN and creatinine (renal function biomarkers); type: in vivo; conditions: for BUN serum concentration / Creatinine serum concentration: mean ± SE, n = 6
Procedure: as §1, §2, §3

heart tissue = assay: Histopathology assessment of heart (H&E, semi-quantitative grading); type: in vivo; conditions: mice
Procedure: as §1, §4, §7, §8

[6] = set-up: method as in PMID 19169880; conditions: mice, cited from earlier work
[7] = paracetamol 500 mg/kg IP alone, n = 6
[8] = paracetamol 500 mg/kg IP alone, n = 6, listed as paracetamol
[9] = sunitinib 25 mg/kg PO alone, 4 h post dose, n = 6
[10] = sunitinib 50 mg/kg PO alone, 4 h post dose, n = 6
[11] = sunitinib 80 mg/kg PO alone, 4 h post dose, n = 6
[12] = sunitinib 100 mg/kg PO alone, 4 h post dose, n = 6
[13] = sunitinib 140 mg/kg PO alone, 4 h post dose, n = 6
[14] = sunitinib alone 25-140 mg/kg PO, 4 h post dose
[15] = increasing doses of sunitinib alone (25-140 mg/kg PO), 4 h
[16] = sunitinib 25 mg/kg PO alone, 4 h post dose
[17] = sunitinib 50 mg/kg PO alone, 4 h post dose
[18] = sunitinib 80 mg/kg PO alone, 4 h post dose
[19] = sunitinib 100 mg/kg PO alone, 4 h post dose
[20] = sunitinib 140 mg/kg PO alone, 4 h post dose

CCNCCNC(=O)c1c(C)[nH]c(/C=C2\C(=O)Nc3ccc(F)cc32)c1C [SU12662]
Brain penetration, times the plasma concentration [1]: 4-7 times | Bound to mouse plasma proteins (mouse plasma proteins): 95% | Brain penetration, percent of plasma concentrations [2]: 30%-40 | Bound to plasma proteins (plasma proteins): 90% | Half-life [3]: 80 to 110 h

CC(=O)Nc1ccc(O)cc1 [PCM, paracetamol]
Mean serum AST relative to vehicle control group (Male ICR mice [4]; paracetamol 500 mg/kg IP alone): 2 fold | ALT serum concentration (Male ICR mice [4]; [7]): 249.6 ± 222.7 U/L | AST serum concentration (Male ICR mice [4]; [7]): 377.1 ± 173.6 U/L | ALT serum concentration (Male ICR mice [4]; [8]): 249.60 ± 222.72 U/L | AST serum concentration (Male ICR mice [4]; [8]): 377.09 ± 173.55 U/L | Hepatic inflammatory changes (grade) (liver tissue; paracetamol 500 mg/kg IP alone): moderate (moderate change - 2 (patent changes, 31-60%)) | Hepatic vascular changes (grade) (liver tissue; paracetamol 500 mg/kg IP alone): mild (mild change - 1 (initiation of changes, up to 30%)) | Amount undergoing P450 mediated oxidation to NAPQI (P450): ~ 5% | Renal inflammatory changes (grade) (kidney tissue; paracetamol 500 mg/kg IP alone): mild (mild change - 1 (initiation of changes, up to 30%)) | Renal vascular changes (grade) (kidney tissue; paracetamol 500 mg/kg IP alone): mild (mild change - 1 (initiation of changes, up to 30%)) | Brain vascular or inflammatory changes (brain tissue; paracetamol 500 mg/kg IP alone): no vascular or inflammatory changes | Spleen inflammatory changes (spleen): no inflammatory changes | Spleen vascular changes (spleen): did not reveal any vascular changes | Increase of creatinine serum concentration vs baseline control (Male ICR mice [5]; paracetamol 500 mg/kg IP alone): 21% | BUN serum concentration (Male ICR mice [5]; paracetamol 500 mg/kg IP alone): 33.81 ± 5.68 mg/dL | Creatinine serum concentration (Male ICR mice [5]; paracetamol 500 mg/kg IP alone): 0.644 ± 0.110 mg/dL | Heart inflammatory changes (grade) (heart tissue; paracetamol 500 mg/kg IP alone): mild (mild change - 1 (initiation of changes, up to 30%)) | Heart vascular congestion (grade) (heart tissue; paracetamol 500 mg/kg IP alone): mild (mild change - 1 (initiation of changes, up to 30%))

CCN(CC)CCNC(=O)c1c(C)[nH]c(/C=C2\C(=O)Nc3ccc(F)cc32)c1C [Sunitinib]
ALT serum concentration (Male ICR mice [4]; [9]): 61.40 ± 26.57 U/L | AST serum concentration (Male ICR mice [4]; [9]): 204.6 ± 50.3 U/L | ALT serum concentration (Male ICR mice [4]; [10]): 36.75 ± 12.15 U/L | AST serum concentration (Male ICR mice [4]; [10]): 204.4 ± 49.4 U/L | ALT serum concentration (Male ICR mice [4]; [11]): 75.02 ± 20.37 U/L | AST serum concentration (Male ICR mice [4]; [11]): 290.3 ± 77.7 U/L | ALT serum concentration (Male ICR mice [4]; [12]): 47.61 ± 24.50 U/L | AST serum concentration (Male ICR mice [4]; [12]): 243.0 ± 66.4 U/L | ALT serum concentration (Male ICR mice [4]; [13]): 50.89 ± 18.90 U/L | AST serum concentration (Male ICR mice [4]; [13]): 239.5 ± 65.9 U/L | ALT serum concentration, range of group means (Male ICR mice [4]; [14]): 36.75-75.02 U/L | AST serum concentration, range of group means (Male ICR mice [4]; [14]): 204.4-290.3 U/L and 204.64 - 290.28 U/L | Hepatic inflammatory changes (grade) (liver tissue; [15]): mild (mild change - 1 (initiation of changes, up to 30%)) | Hepatic vascular changes (grade) (liver tissue; [15]): mild (mild change - 1 (initiation of changes, up to 30%)) | Brain penetration, times the plasma concentration [1]: 4-7 times | Renal inflammatory changes (kidney tissue; sunitinib alone 140 mg/kg PO, 4 h): some tubular necrosis | Renal vascular changes (grade) (kidney tissue; sunitinib alone 25-140 mg/kg PO, 4 h): mild (mild change - 1 (initiation of changes, up to 30%)) | Renal inflammatory changes (kidney tissue; sunitinib alone PO, doses below 140 mg/kg, 4 h): no signs of inflammatory changes | Bound to mouse plasma proteins (mouse plasma proteins): 91% | Brain penetration, percent of plasma concentrations [2]: 30%-40 | Bound to albumin (plasma proteins): 95% | Brain histopathological changes (brain tissue; sunitinib alone PO at high doses): toxicity decreased | Brain histopathological changes (brain tissue; sunitinib alone PO at low doses (p < 0.05 at 25 and 80 mg/kg)): Some congestion of vessels at the 'cortical junction' as well as evidence of liquefactive necrosis | Dose eliminated in the faeces [3]: 61% | Half-life [3]: 40 to 60 h | Recovered unchanged in urine [3]: around 16% | Time after dosing at which maximum plasma concentration is reached [3]: 6 to 12 h | Spleen inflammatory changes (spleen): no inflammatory changes | Spleen vascular changes (spleen): did not reveal any vascular changes | Elimination half-life ([6]; after oral administration): 1.5 to 7.6 h | Time within which maximum concentration is achieved [6]: 0.5 to 6 h | BUN serum concentration (Male ICR mice [5]; [16]): 20.08 ± 2.54 mg/dL | Creatinine serum concentration (Male ICR mice [5]; [16]): 0.535 ± 0.033 mg/dL | BUN serum concentration (Male ICR mice [5]; [17]): 17.5 ± 1.25 mg/dL | Creatinine serum concentration (Male ICR mice [5]; [17]): 0.594 ± 0.082 mg/dL | BUN serum concentration (Male ICR mice [5]; [18]): 19.71 ± 0.58 mg/dL | Creatinine serum concentration (Male ICR mice [5]; [18]): 0.528 ± 0.064 mg/dL | BUN serum concentration (Male ICR mice [5]; [19]): 17.62 ± 0.94 mg/dL | Creatinine serum concentration (Male ICR mice [5]; [19]): 0.533 ± 0.060 mg/dL | BUN serum concentration (Male ICR mice [5]; [20]): 26.68 ± 6.05 mg/dL | Creatinine serum concentration (Male ICR mice [5]; [20]): 0.559 ± 0.051 mg/dL | BUN concentrations, range of group means (Male ICR mice [5]; [14]): 17.50 to 26.68 mg/dL | Creatinine serum concentration, range of group means (Male ICR mice [5]; [14]): 0.528 to 0.594 mg/dL | Cardiotoxicity (damage grade) (heart tissue; 25 - 80 mg/kg doses of sunitinib, reduction in relation to the paracetamol group): no damage to moderate damage | Heart inflammatory changes (heart tissue; sunitinib alone PO, 4 h): no inflammatory changes | Heart vascular congestion (grade) (heart tissue; sunitinib alone PO, 4 h): mild (mild change - 1 (initiation of changes, up to 30%))
